From US11226340B2, “Therapeutically triggering an innate immune response in a target tissue” (priority 2016, dated 2022)

Key:
B16 melanoma [1] = assay: Cancer antigen (gp100) potentiation in B16 melanoma lung model; format: in vivo, mouse; conditions: K. pneumoniae-pre-exposed mice; day +14
B16 melanoma [2] = assay: STING agonist combined with SSI in B16 melanoma lung model; format: in vivo, mouse; conditions: day +14
Protocol: The anti-tumour efficacy of QBKPN SSI in combination with the STING agonist 2′2′-cGMAP (inVivoGen) was evidenced in C57Bl/6 mice, as follows. On ˜day −31, mice were infected with K. pneumoniae (2.5×10^5 cells/mouse) by oropharyngeal instillation after being anaesthetized with isofluorane, then rested. Within 5-7 days, all mice were fully recovered from K. pneumonia challenge. Starting on day −10, some mice were S.C. injected with QBKPN SSI; mice were injected every other day from Day −10 to day +12. Injections were performed in rotating sites at a dose of 0.03 ml of a 5.0 OD suspension. On days −10, −6, and −4, some mice were also treated with STING agonist (SC injection of 10 μg/mouse in 20 μl of saline), either co-mixed with SSI or s.c. in a distal site (nape). On Day 0, mice were challenged with B16 melanoma by tail-vein (I.V.) injection of singlecell suspensions of tumour cells (2.0×10^5 cells/mouse). On day +14, plasma was collected for ELISA, then mice were sacrificed and visual metastases counted and recorded. Serum was collected into heparin-containing tubes, then centrifuged to remove cells. ELISA (RND Systems DuoSet DY485, limit of detection […]) was performed per the manufacturer's protocol. […] Statistical differences were evaluated by unpaired T test (GraphPad PRISM).

Compound | tumour burden (metastatic-like B16 melanoma in the lungs) (B16 melanoma [1]) | tumour burden (tumour nodules in the lungs) (B16 melanoma [2]; K. pneumoniae-pre-exposed mice) | circulating (plasma) levels of IFN-γ (B16 melanoma [2])
KVPRNQDWL [gp100, melanoma-specific antigen gp100 25-33 peptide] | no significant effect | – | –
Nc1nc2c(ncn2[C@@H]2O[C@@H]3COP(=O)(O)O[C@@H]4[C@H](O)C(COP(=O)(O)O[C@@H]2C3O)O[C@H]4n2cnc3c(N)ncnc32)c(=O)[nH]1 (stereo partly drawn) [STING agonist, 2′2′-cGMAP] | – | reduced tumour burden (p=0.0038) | enhanced circulating levels of IFN-γ
